According to PubChem BioAssay AID2102 (Southern Research Specialized Biocontainment Screening …, 2009):

Test system: Host cell viability cytotoxicity counter-screen, SV40 T antigen hits
Test: cell viability loss from selected hits – cytotoxicity control for SV40 T antigen inhibitor project, dose response (AID 2102);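 also: cells exposed to compounds for 72 hours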

CCOc1ccc(NCc2cccn2-c2nnc(N3CCC(C(=O)NCCCN4CCCCC4CC)CC3)s2)cc1 (centres undefined) and CCOc1ccc(NCc2cccn2-c2nnc(N3CCC(C(=O)NCCCN4CC(C)CC(C)C4)CC3)s2)cc1 (centres undefined) are within 1.5-fold of each other in CC50: 49.8 µM for the first, 36.9 µM for the second.

First: Cc1c(C)n(Cc2ccccc2)c2ncnc(NN)c12
Second: CCN(CC)c1ccc(NC(=O)C2CC(=O)N(Cc3ccccc3)C2)cc1 (centres undefined)
The CC50 of the first is 7-fold lower: 6.12 µM for the first, 42.7 µM for the second.

COc1cc(Cl)ccc1NC(=O)COc1ccccc1C(=O)N1CCN(c2ccc(O)cc2)CC1 and O=C(CCOc1ccccc1)N1CCN(c2ccc(O)cc2)CC1 are within 1.5-fold of each other in CC50: 33.7 µM for the first, 31.5 µM for the second.

Compared with COc1cccc(CNc2ccc3[nH]c(=O)[nH]c3c2)c1OCc1ccccc1, COC1=C(Nc2ccc(O)cc2)C(=O)c2ccccc2C1=O is 2.2-fold lower in CC50: 37 µM for the first, 16.5 µM for the second.

Compared with Oc1ccc(N2CCN(C(=S)NCCc3ccccc3)CC2)cc1, O=C(CCSc1ccc(Cl)cc1)N1CCN(c2ccc(O)cc2)CC1 is 3.1-fold lower in CC50: 45 µM for the first, 14.6 µM for the second.

CCCc1nc2ccccc2c(=O)n1/N=C/c1ccc(O)c(O)c1 and O=c1c2ccccc2nc(COc2ccccc2)n1/N=C/c1ccc(O)c(O)c1 are within 1.5-fold of each other in CC50: 48.4 µM for the first, 33.8 µM for the second.

First: Oc1ccc(CCNc2c3ccccc3nc3ccccc23)cc1O
Second: COc1cccc(-n2c(SCc3cc(=O)oc4cc(O)c(O)cc34)nc3ccccc3c2=O)c1
The CC50 of the first is 2.2-fold higher: 39.3 µM for the first, 18.2 µM for the second.

First: Cc1ccc(/C=C2/SC(=O)NC2=S)o1
Second: O=C1NC(=S)S/C1=C\c1ccc(SCc2ccco2)o1
The CC50 of the first is 3.2-fold higher: 48.1 µM for the first, 15.2 µM for the second.

CCOc1c(Br)cc(CNc2ccc(N3CCOCC3)cc2)cc1OC and CCOc1c(Br)cc(CNc2ccc(N3CCN(C(C)=O)CC3)cc2)cc1OC are within 1.5-fold of each other in CC50: 13.8 µM for the first, 14.2 µM for the second.

CC(C)c1ccc(S(=O)(=O)N2CCN(CC(=O)c3ccc(O)c(O)c3)CC2)cc1 and O=S(=O)(c1ccc(NC(=S)N2CCN(c3ccc(O)cc3)CC2)cc1)N1CCOCC1 are within 1.5-fold of each other in CC50: 31.3 µM for the first, 33 µM for the second.

COc1cc(CNc2ccc(N3CCOCC3)cc2)ccc1OCC(=O)NC(C)(C)C and COc1cc(CNc2ccc(N3CCCCC3)cc2)ccc1OCC(=O)NC(C)(C)C are within 1.5-fold of each other in CC50: 30.8 µM for the first, 24.5 µM for the second.

First: COc1ccc(N2CCC(CNC(=S)Nc3c(C)cc(C)cc3C)C2)cc1 (centres undefined)
Second: COc1ccc(N2CCC(CNC(=S)Nc3c(C)cccc3C)C2)cc1 (centres undefined)
The CC50 of the first is 2.9-fold lower: 15.9 µM for the first, 45.8 µM for the second.

COc1cc(-c2cc(=O)c3ccccc3o2)ccc1O and O=c1cc(-c2ccc(O)c(O)c2)oc2cc(O)cc(O)c12 are within 1.5-fold of each other in CC50: 35.7 µM for the first, 47.9 µM for the second.

Going from CCCc1cc(-c2n[nH]c(C(=O)OCC)c2-c2cscn2)c(O)cc1O to CCOC(=O)c1[nH]nc(-c2cc(CC)c(O)cc2O)c1-c1cscn1, the CC50 rises from 11.1 µM to 33.7 µM (3-fold).

Going from CCCCCCCCCCCCCCCC[N+](C)(C)CCN(Cc1ccc(OC)cc1)c1ncccn1 to COc1cnc(-c2ccccn2)nc1Oc1ccc(Cl)c2ccccc12, the CC50 rises from 7.39 µM to 13.7 µM (1.9-fold).

Going from C=C1C(=O)O[C@H]2[C@H]1[C@H](OC(=O)CC(=O)O[C@@H]1C[C@@H](C)[C@@H]3C=CC(=O)[C@@]3(C)[C@H]3OC(=O)C(=C)[C@H]13)C[C@@H](C)[C@H]1C=CC(=O)[C@]12C to CC1=C(C(=O)OCC(C)C)C(c2cccs2)NC(=S)N1 (centres undefined), the CC50 rises from 3.95 µM to 21 µM (5.3-fold).

O=C(N/N=C/c1cc(Br)c(O)c(Br)c1)c1cc2c(ccc3ccccc32)o1 and O=c1cc2oc3cc(O)c(O)cc3c(-c3ccccc3[N+](=O)[O-])c-2cc1O are within 1.5-fold of each other in CC50: 32.3 µM for the first, 24.1 µM for the second.

Compared with COCCN=C1Sc2nc3c(C)cccc3cc2CN1Cc1ccco1, COc1ccc(NC2CCCN(Cc3cccc4cnccc34)C2)cc1OC (centres undefined) is 1.6-fold higher in CC50: 23 µM for the first, 35.9 µM for the second.

CC(=O)Nc1sc(N/N=C\c2ccco2)nc1-c1cccs1 and O=C(NN1C(=O)/C(=C/C=C/c2ccco2)SC1=S)c1ccccc1O are within 1.5-fold of each other in CC50: 49.8 µM for the first, 40.6 µM for the second.

Compared with Oc1cc2c(c(Cl)c1O)CCNCC2c1ccccc1 (centres undefined), O=C(/C=C/c1ccc(O)c(O)c1)c1ccccc1O is 1.6-fold lower in CC50: 41 µM for the first, 26.3 µM for the second.

CC(=O)N(c1ccc2oc(=O)sc2c1)S(=O)(=O)c1cccs1 and CC(=O)N(c1ccc2oc(=O)sc2c1)S(=O)(=O)c1ccccc1 are within 1.5-fold of each other in CC50: 33.8 µM for the first, 36.8 µM for the second.

C=CCn1c(=S)[nH]c2scc(-c3ccco3)c2c1=O and C=CCn1c(SCC(C)=O)nc2scc(-c3ccco3)c2c1=O are within 1.5-fold of each other in CC50: 32.5 µM for the first, 48.4 µM for the second.

First: Cc1ccccc1/C=C/C(=O)c1ccc([N+](=O)[O-])o1
Second: COc1cc(/C=C/C(=O)c2ccc([N+](=O)[O-])o2)ccc1O
The CC50 of the first is 1.9-fold lower: 23.6 µM for the first, 44.1 µM for the second.

Cc1ccc(S(=O)(=O)N2[C@@H](c3ccc(Cl)cc3)C(C(=O)O)=CC[C@H]2c2ccc(Cl)cc2)cc1 and Cc1ccc(S(=O)(=O)N2CCCOC2CNC(=O)C(=O)NCCc2c[nH]c3ccccc23)cc1 (centres undefined) are within 1.5-fold of each other in CC50: 30.7 µM for the first, 27.7 µM for the second.

First: CC1=NOC(=O)/C1=C\c1ccc(-c2ccccc2Br)o1
Second: Cc1ccc(-c2ccc(/C=C3\C(=O)ON=C3c3ccccc3)o2)c([N+](=O)[O-])c1
The CC50 of the first is 1.5-fold lower: 24.7 µM for the first, 37.5 µM for the second.

CCOC(=O)c1c(N2C(=O)Nc3cc(Cl)c(Cl)cc3N2O)sc2c1CCCCC2 and Cc1ccc(-n2sc3ccccc3c2=O)cc1S(=O)(=O)N1CCCCC1 are within 1.5-fold of each other in CC50: 15.6 µM for the first, 14.7 µM for the second.

CCN(CC)c1ccc(NC(=O)CCNS(=O)(=O)c2ccc3c(c2)CCC(=O)N3)c(C)c1 and CCN(CC)c1ccc(/C=C2\C(=O)N(c3nnc(C)c(=O)[nH]3)N=C2C)cc1 are within 1.5-fold of each other in CC50: 42.2 µM for the first, 46.4 µM for the second.

Going from CN(C)c1ccc(NS(=O)(=O)c2cccc(Cl)c2)cc1 to CN(C)S(=O)(=O)c1cccc(-n2sc3ccccc3c2=O)c1, the CC50 falls from 47.2 µM to 30.4 µM (1.6-fold).

CCC[n+]1c2ccccc2cc2ccccc21 and CCCC[n+]1c2ccccc2cc2ccccc21 are within 1.5-fold of each other in CC50: 23.8 µM for the first, 23.9 µM for the second.

Compared with CC(/C=C1\SC(=S)N(CCCC(=O)Nc2ccc(C(=O)O)c(O)c2)C1=O)=C\c1ccccc1, N#Cc1ccccc1CN1C(=O)S/C(=C/c2cccn2-c2cccc(C(=O)O)c2)C1=O is 2.3-fold lower in CC50: 38.4 µM for the first, 16.9 µM for the second.

Cc1ccc(OCCC(=O)N2CCN(c3ccc(O)cc3)CC2)cc1 and O=C(c1ccccc1)N1CCN(c2ccc(NCc3ccc4c(c3)OCO4)cc2)CC1 are within 1.5-fold of each other in CC50: 20.7 µM for the first, 17.3 µM for the second.

O=C1C(SCCO)=C(SCCO)C(=O)c2ccccc21 and CCCCNC(=O)c1sc(=S)n2c1[nH]c(=O)c1ccccc12 are within 1.5-fold of each other in CC50: 28.2 µM for the first, 31.8 µM for the second.

Going from Cc1ccccc1-n1sc2cc(F)ccc2c1=O to O=C1NC(=S)S/C1=C\c1ccc(SCc2ccccc2)o1, the CC50 rises from 14.6 µM to 30 µM (2.1-fold).

Going from Cc1cc(C(=O)c2cccs2)c(N)s1 to Cc1cc2c(N=O)c(NO)ccc2[nH]1, the CC50 falls from 35.8 µM to 22.1 µM (1.6-fold).

Cc1ccc(/C=N/n2c(-c3ccco3)n[nH]c2=S)cc1 and CNc1nc(-c2ccccc2)[n+](-c2ccc(C)cc2)s1 are within 1.5-fold of each other in CC50: 24.7 µM for the first, 36.2 µM for the second.

Cc1c(Br)c(=O)oc2c(Br)c(O)c(O)cc12 and COc1cc(OC)c(-c2c3cc(O)c(=O)cc-3oc3cc(O)c(O)cc23)cc1OC are within 1.5-fold of each other in CC50: 49.2 µM for the first, 47.7 µM for the second.

Going from Cc1nc2ncccn2c1-c1csc(Nc2ccc(N(C)C)cc2)n1 to Cc1ccc(C2(C)NC(=O)N(CC(=O)Nc3nc(-c4ccccn4)cs3)C2=O)cc1 (centres undefined), the CC50 falls from 27.5 µM to 11.3 µM (2.4-fold).

Going from O=[N+]([O-])c1ccc(-[n+]2ccc3ccccc3c2)c([N+](=O)[O-])c1 to Oc1ccc(-c2[nH]ncc2-c2cccc3cccnc23)c(O)c1, the CC50 falls from 29 µM to 17.3 µM (1.7-fold).

Clc1ccccc1CSc1nnc(-c2ccco2)c(-c2ccco2)n1 and Oc1ccc(Nc2nc(N3CCCC3)c3ccccc3n2)cc1 are within 1.5-fold of each other in CC50: 24.6 µM for the first, 30.7 µM for the second.

Going from CCS(=O)(=O)c1ncc(Cl)c(C(=O)Nc2ccc(S(=O)(=O)N3CCC(C)CC3)cc2)n1 to CCS(=O)(=O)c1ncc(Cl)c(C(=O)Nc2ccc(S(=O)(=O)N3CCCC(C)C3)cc2)n1 (centres undefined), the CC50 falls from 48.6 µM to 31.2 µM (1.6-fold).

Oc1ccc(/C=N/Nc2ccc(C(F)(F)F)cn2)cc1O and Nc1cnc(Nc2ccc(Br)cc2)nc1N are within 1.5-fold of each other in CC50: 34.6 µM for the first, 42.2 µM for the second.

CN1\C(=C/C=C/C=C/C=[N+](C)C)C(C)(C)c2ccccc21 and O=C1NC(=Nc2ccc(O)cc2)S/C1=C\C=C\c1ccco1 are within 1.5-fold of each other in CC50: 21.7 µM for the first, 30.2 µM for the second.

Compared with COc1ccc(-n2c(=O)c3c4c(sc3n3c(=S)[nH]nc23)COC(C(C)C)C4)cc1 (centres undefined), COc1ccc(N2CCC(CNC(=S)Nc3ccc(C)cc3C)C2)cc1 (centres undefined) is 2.7-fold lower in CC50: 40.1 µM for the first, 15 µM for the second.

CCOc1cc(N2CCOCC2)c(OCC)cc1NS(=O)(=O)c1ccc(Cl)s1 and CCN(CC)c1ccc(/C=N/N2CCOCC2)cc1 are within 1.5-fold of each other in CC50: 40 µM for the first, 49.4 µM for the second.

Going from O=c1oc2cc(O)ccc2s1 to O=C(NC1CCCC1)c1sc(=S)n2c1[nH]c(=O)c1ccccc12, the CC50 falls from 31.2 µM to 15.9 µM (2-fold).

Compared with O=C(O)c1ccc(-n2cccc2/C=C2/NC(=O)N(c3ccccc3)C2=O)cc1, O=C(CCl)Nc1ccc(N2CCCCCC2)cc1 is 3-fold higher in CC50: 15.6 µM for the first, 47.1 µM for the second.

First: Cc1ccc2nc(-c3ccccn3)c(NC3CCCC3)n2c1
Second: CCCCC(CC)CN=C(N)NC(N)=NCCCCCCN=C(N)NC(N)=NCC(CC)CCCC (centres undefined)
The CC50 of the first is 4.3-fold higher: 15.1 µM for the first, 3.49 µM for the second.
